In ChEMBL document CHEMBL1201862, “PubChem BioAssay data set” (2004):
Activity calls are given as the source filed them.

How the values were obtained:
[1] = Luminescence Cell-Based Dose Confirmation HTS to Identify Inhibitors of Polyadenylation.; format: functional
Prothrombin = Prothrombin (Homo sapiens, UniProt P00734); assay: Thrombin 1536 HTS Dose Response Confirmation. [Related pubchem assays: 1046 (Thrombin 1536 HTS; hits were confirmed in this assay)]; format: functional
[2] = rise of 2N DNA cells, HeLa – IC50, dose response (AID 1117349); format: functional, cell-based
[3] = rise of 4N DNA cells, HeLa – IC50, dose response (AID 1117351); format: functional, cell-based
[4] = target: E3 ubiquitin-protein ligase Mdm2 (Homo sapiens, UniProt Q00987); assay: MDM2-luc reporter signal enhancers, multi-concentration potency testing, MDM2 ubiquitin-protein ligase inhibitor program, whole-cell format, luminescence detection, 384-well microplate (AID 1394); format: functional;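 further: MDM2 E3 inhibitors raise luminescence so EC50 is for signal enhancement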
[5] = HIV-1 Vif–A3G interaction blockers – biochemical, TR-FRET, GST-Vif 1-94, biotin-A3G peptide, dose response retest, primary screen (AID 1117319); format: functional;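 further: TR-FRET signal of purified GST-Vif binding a biotinylated A3G peptide; inhibitors lower the FRET signal by blocking Vif and A3G binding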
[6] = target: Glyceraldehyde-3-phosphate dehydrogenase (Homo sapiens, UniProt P04406)
Bcl-2-related protein A1 [7] = target: T1, Bcl-2-related protein A1 (Mus musculus, UniProt Q07440); assay: small-molecule antagonists of Bfl-1/BH3 interaction – biochemical, TR-FRET, mouse Bfl-1, confirmation (AID 621);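 further: TR-FRET binding of GST-Bfl-1 to FITC-labelled Bid peptide via terbium antibody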
T1 sequence (Q07440 whole entry): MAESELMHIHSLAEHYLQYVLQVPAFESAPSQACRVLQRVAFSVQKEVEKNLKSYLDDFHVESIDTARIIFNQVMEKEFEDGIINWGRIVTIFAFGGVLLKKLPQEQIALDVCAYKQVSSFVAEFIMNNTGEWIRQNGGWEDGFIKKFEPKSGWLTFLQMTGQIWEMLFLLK

Bcl-2-related protein A1 [8] = target: T1, Bcl-2-related protein A1; assay: Bfl-1 binding inhibitors, SAR follow-up, biochemical, fluorescence polarization (AID 1070)
[9] = target: T2, Tyrosine-protein phosphatase non-receptor type 7 (Homo sapiens, UniProt P35236); assay: HePTP tyrosine phosphatase activity blockers – biochemical, absorbance, leukemia target, primary screen (AID 521); format: functional
T2 sequence (P35236 whole entry): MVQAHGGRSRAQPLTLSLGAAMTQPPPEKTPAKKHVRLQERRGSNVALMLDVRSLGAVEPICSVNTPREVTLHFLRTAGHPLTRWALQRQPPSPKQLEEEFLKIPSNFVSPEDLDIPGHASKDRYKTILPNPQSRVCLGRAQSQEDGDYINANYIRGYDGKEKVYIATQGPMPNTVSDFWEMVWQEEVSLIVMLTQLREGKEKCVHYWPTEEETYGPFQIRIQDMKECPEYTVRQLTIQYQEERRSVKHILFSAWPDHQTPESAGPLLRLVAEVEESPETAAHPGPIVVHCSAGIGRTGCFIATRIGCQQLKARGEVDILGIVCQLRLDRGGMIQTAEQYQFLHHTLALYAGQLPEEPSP

[10] = potency of ADAM10 substrate cleavage blockers – biochemical, QFRET, dose response (AID 743254);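 further: ADAM10 enzyme with the DM2 quenched FRET peptide as substrate; EDANS fluorescence gain as the protease cuts the substrate; inhibitor potency against ADAM10 proteolytic activity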
[11] = target: Disintegrin and metalloproteinase domain-containing protein 17 (Homo sapiens, UniProt P78536); assay: inhibition of ADAM17 substrate cleavage – biochemical, quenched FRET substrate, counter-screen for ADAM10 exosite inhibitor project, dose response (AID 743253)
[12] = Trypanosoma cruzi growth suppression in host cells – NIH3T3 host cells, beta-gal luminescence, confirmation (AID 2044); format: functional, cell-based;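 further: intracellular parasites grown in NIH/3T3 mouse fibroblasts as host cells; luminescent beta-galactosidase reporter signal from transgenic T. cruzi replicating inside host cells; inhibitors lower the luminescence signal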
[13] = NIH3T3 cell viability loss – ATP luminescence, mouse fibroblasts, counter-screen, dose response (AID 2010); format: functional, cell-based;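 further: cells exposed to compound for about 90 hours before reading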
[14] = target: Bifunctional protein GlmU (Mycobacterium tuberculosis, UniProt P9WMN3); assay: Inhibitors of Mycobacterial Glucosamine-1-phosphate acetyl transferase (GlmU). Secondary screen.; set-up: species or system Mycobacterium tuberculosis H37Rv
Bifunctional protein GlmU, sequence (P9WMN3 whole entry): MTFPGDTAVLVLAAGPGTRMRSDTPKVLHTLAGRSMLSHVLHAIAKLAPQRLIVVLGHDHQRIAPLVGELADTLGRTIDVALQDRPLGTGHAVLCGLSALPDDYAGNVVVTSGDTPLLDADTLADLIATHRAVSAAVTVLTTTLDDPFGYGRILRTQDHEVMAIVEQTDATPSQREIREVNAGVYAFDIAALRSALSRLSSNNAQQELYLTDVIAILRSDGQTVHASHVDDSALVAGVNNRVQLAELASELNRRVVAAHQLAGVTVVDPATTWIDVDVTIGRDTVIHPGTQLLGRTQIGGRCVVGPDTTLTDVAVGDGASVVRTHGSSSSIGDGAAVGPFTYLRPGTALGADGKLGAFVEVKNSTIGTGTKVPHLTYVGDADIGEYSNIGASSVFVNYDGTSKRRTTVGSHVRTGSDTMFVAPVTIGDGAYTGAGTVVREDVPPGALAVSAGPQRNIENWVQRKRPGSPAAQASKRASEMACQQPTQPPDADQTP

Glyceraldehyde-3-phosphate dehydrogenase, sequence (P04406 whole entry): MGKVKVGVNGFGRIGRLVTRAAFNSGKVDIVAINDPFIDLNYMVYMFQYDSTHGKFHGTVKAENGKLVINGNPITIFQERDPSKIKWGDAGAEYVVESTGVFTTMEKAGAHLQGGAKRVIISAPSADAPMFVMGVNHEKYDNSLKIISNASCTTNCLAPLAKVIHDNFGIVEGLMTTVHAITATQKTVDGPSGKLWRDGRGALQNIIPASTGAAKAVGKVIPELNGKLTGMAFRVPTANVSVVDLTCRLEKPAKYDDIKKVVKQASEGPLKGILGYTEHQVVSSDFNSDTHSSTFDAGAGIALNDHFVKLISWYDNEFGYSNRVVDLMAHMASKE
E3 ubiquitin-protein ligase Mdm2, sequence (Q00987 whole entry): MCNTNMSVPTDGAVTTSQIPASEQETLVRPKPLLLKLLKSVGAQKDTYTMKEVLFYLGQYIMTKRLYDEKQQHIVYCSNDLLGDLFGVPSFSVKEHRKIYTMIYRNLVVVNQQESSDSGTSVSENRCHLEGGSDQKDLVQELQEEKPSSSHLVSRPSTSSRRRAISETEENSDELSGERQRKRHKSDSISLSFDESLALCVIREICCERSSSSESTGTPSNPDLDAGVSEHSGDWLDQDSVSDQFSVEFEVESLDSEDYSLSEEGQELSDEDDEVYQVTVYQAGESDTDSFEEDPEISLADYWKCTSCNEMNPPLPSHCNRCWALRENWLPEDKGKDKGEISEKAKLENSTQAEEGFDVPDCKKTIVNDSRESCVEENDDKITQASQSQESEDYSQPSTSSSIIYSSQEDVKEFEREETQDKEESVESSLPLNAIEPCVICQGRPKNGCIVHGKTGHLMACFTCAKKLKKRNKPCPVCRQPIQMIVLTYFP
Disintegrin and metalloproteinase domain-containing protein 17, sequence (P78536 whole entry, the tested form may be a part): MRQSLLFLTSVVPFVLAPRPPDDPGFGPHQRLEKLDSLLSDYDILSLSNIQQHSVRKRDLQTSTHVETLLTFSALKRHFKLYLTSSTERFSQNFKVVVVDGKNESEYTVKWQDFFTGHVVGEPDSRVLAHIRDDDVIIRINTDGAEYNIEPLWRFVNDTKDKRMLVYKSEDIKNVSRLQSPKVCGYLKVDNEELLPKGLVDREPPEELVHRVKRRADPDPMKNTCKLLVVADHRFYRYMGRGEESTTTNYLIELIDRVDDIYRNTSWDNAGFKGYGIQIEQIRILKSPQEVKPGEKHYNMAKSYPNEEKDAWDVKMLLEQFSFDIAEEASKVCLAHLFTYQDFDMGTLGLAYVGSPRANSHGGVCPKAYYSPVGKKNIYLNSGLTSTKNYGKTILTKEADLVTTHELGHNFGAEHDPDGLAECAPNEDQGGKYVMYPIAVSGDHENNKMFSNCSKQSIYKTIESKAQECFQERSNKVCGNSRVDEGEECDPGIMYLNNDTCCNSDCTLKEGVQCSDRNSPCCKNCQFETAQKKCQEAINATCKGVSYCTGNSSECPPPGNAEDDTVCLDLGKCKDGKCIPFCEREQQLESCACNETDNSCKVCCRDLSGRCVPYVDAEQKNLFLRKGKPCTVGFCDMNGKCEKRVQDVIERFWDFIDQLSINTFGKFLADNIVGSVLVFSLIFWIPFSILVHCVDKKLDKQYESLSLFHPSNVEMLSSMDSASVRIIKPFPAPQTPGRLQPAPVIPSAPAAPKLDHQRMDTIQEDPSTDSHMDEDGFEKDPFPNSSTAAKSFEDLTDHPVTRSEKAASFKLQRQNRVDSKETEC

**Q.** With `O=C(COC(=O)Cc1ccc(S(=O)(=O)N2CCOCC2)s1)NCc1ccccc1` as the molecule, how does the EC50 [1] read?
**A.** 39.8 µM (active)

**Q.** For `CCc1nc(O)c2ccsc2n1`, which IC50 (Prothrombin) is on record?
**A.** > 50 µM (not active)

**Q.** With `COc1ccc(/C=C/C(=O)c2ccc(OC)cc2OC)cc1` as the molecule, how does the IC50 [2] read?
**A.** > 10 µM (inactive)

**Q.** And the IC50 [3]?
**A.** > 10 µM (inactive)

**Q.** For `COC(=O)C1=C(C(=O)OC)[C@@H]2N(C)c3ccc(OC)cc3[C@@]23C[C@@H](C(=O)OC)NC3=N1`, which EC50 [4] is on record?
**A.** 1.09 µM (not active)

**Q.** With `O=C(O)c1ccc(S(=O)(=O)c2ccc3c(c2)C(=O)N(Cc2ccco2)C3=O)cc1` as the molecule, how does the IC50 [5] read?
**A.** > 100 µM (active)

**Q.** Which IC50 [6] does the source give for `Cc1ccc(Cl)c(N2C(=O)C(Cl)=C(N3CCOCC3)C2=O)c1Cl` here?
**A.** > 10 µM (inconclusive)

**Q.** What about the IC50 (Bcl-2-related protein A1 [7]) of the same molecule?
**A.** > 100 µM (not active)

**Q.** What about the IC50 (Bcl-2-related protein A1 [8]) of the same molecule?
**A.** > 100 µM (not active)

**Q.** Which IC50 [9] does the source give for `Cc1ccc(OCC(=O)Nc2ccc(-c3nnc(-c4ccco4)o3)cc2)cc1` here?
**A.** > 100 µM (not active)

**Q.** For `Cc1ccc(-n2c(Cc3cccs3)nnc2SCC(=O)Nc2ccc(OCc3ccccc3)cc2)cc1`, which IC50 [10] is on record?
**A.** > 69.5 µM (inactive)

**Q.** What about the IC50 [11] of the same molecule?
**A.** > 69.5 µM (inactive)

**Q.** For `CN(C)c1ccc(/C=N\NC(=O)c2csnn2)cc1`, which IC50 [5] is on record?
**A.** > 100 µM (active)

**Q.** Which EC50 [12] does the source give for `Clc1ccc(SCCOCCN2CCc3ccccc3C2)cc1` here?
**A.** < 100 nM (active)

**Q.** And the EC50 [13]?
**A.** > 60 µM (not active)

**Q.** And the EC50 (cells)?
**A.** 81 nM (active)

**Q.** Which IC50 [14] does the source give for `CN1CCN(C(=S)NC(=O)c2ccc(Cl)cc2)CC1` here?
**A.** 132 µM (active)
